Measured values from patent EP2607478A1, “Phenanthroline treated MSC” (Universiteit Twente, priority 2011, dated 2013).

Test system: MSCs
Test: Whole genome expression analysis (Illumina microarray) of treated MSCs
Format: cell-based, Human
Conditions: DFO versus Bas
Procedure: MSCs were seeded in T25 flasks at 5000 cells/cm^2 and allowed to attach overnight in proliferation medium. […] After 48 hours, RNA was isolated as described above. From 500 ng of RNA, cRNA was synthesized using the Illumina TotalPrep RNA amplification Kit (Ambion), according to the manufacturer's protocol and the quality of RNA and cRNA was verified on a Bioanalyzer 2100 (Agilent). Microarrays were performed using Illumina HT-12 v4 expression Beadchips, according to the manufacturer's protocol. Briefly, 750 ng of cRNA was hybridized on the array overnight after which the array was washed and blocked. Then, by addition of streptavidin Cy-3 a fluorescent signal was developed. Arrays were scanned on an Illumina iScan reader and raw intensity values were background corrected in GenomeStudio (Illumina). Further data processing and statistical testing were performed with R and Bioconductor statistical software (www.bioconductor.org), using package lumi. Raw intensity values were transformed using variance stabilization and a quantile normalization was performed. A linear modelling approach with empirical Bayesian methods, as implemented in Limma package (54), was applied for differential expression analysis of the resulting probe-level expression values. A gene list, containing only those genes with an absolute 1.5-fold change between different treatments, was uploaded to Ingenuity Pathway Analysis (IPA) software and used for core analysis. Pathways or networks with a p-value of 0.05 were considered statistically significant.

SMILES: CC(=O)N(O)CCCCCNC(=O)CCC(=O)N(O)CCCCCNC(=O)CCC(=O)N(O)CCCCCN [DFO, reference compound]
- logFC(D142_ DFO - D142_BAS) KCNK2 (ProbeID ILMN_1765990): -2,07
- logFC(D142_ DFO - D142_BAS) C10orf10 (ProbeID ILMN_1767556): 3,15
- logFC(D142_ DFO - D142_BAS) BTG2 (ProbeID ILMN_1770085): 2,57
- logFC(D142_ DFO - D142_BAS) KRT34 (ProbeID ILMN_1770228): 3,81
- logFC(D142_ DFO - D142_BAS) CNN2 (ProbeID ILMN_1770290): -2,29
- logFC(D142_ DFO - D142_BAS) ANGPTL2 (ProbeID ILMN_1772612): -2,31
- logFC(D142_ DFO - D142_BAS) ZNF395 (ProbeID ILMN_1772876): 2,75
- logFC(D142_ DFO - D142_BAS) GAS1 (ProbeID ILMN_1772910): -3,12
- logFC(D142_ DFO - D142_BAS) DKK1 (ProbeID ILMN_1773337): 2,79
- logFC(D142_ DFO - D142_BAS) FBLN2 (ProbeID ILMN_1774602): -2,23
- logFC(D142_ DFO - D142_BAS) SLC2A3 (ProbeID ILMN_1775708): 2,53
- logFC(D142_ DFO - D142_BAS) KCTD11 (ProbeID ILMN_1777513): 2,12
- logFC(D142_ DFO - D142_BAS) LOC644774 (ProbeID ILMN_1779258): 2,61
- logFC(D142_ DFO - D142_BAS) CPA4 (ProbeID ILMN_1784294): 5,59
- logFC(D142_ DFO - D142_BAS) SPOCD1 (ProbeID ILMN_1784948): -2,53
- logFC(D142_ DFO - D142_BAS) PRKD1 (ProbeID ILMN_1785891): -2,05
- logFC(D142_ DFO - D142_BAS) UHRF1 (ProbeID ILMN_1786065): -2,34
- logFC(D142_ DFO - D142_BAS) CDKN1A (ProbeID ILMN_1787212): 2,78
- logFC(D142_ DFO - D142_BAS) TRIB3 (ProbeID ILMN_1787815): 3,16
- logFC(D142_ DFO - D142_BAS) COL11A1 (ProbeID ILMN_1789507): -2,55
- logFC(D142_ DFO - D142_BAS) GBE1 (ProbeID ILMN_1789702): 2,29
- logFC(D142_ DFO - D142_BAS) PRRX2 (ProbeID ILMN_1790338): -2,49
- logFC(D142_ DFO - D142_BAS) LUM (ProbeID ILMN_1790529): -3,27
- logFC(D142_ DFO - D142_BAS) CXCL12 (ProbeID ILMN_1791447): -2,57
- logFC(D142_ DFO - D142_BAS) DPYSL4 (ProbeID ILMN_1792356): 3,05
- logFC(D142_ DFO - D142_BAS) TMEM158 (ProbeID ILMN_1792455): 2,58
- logFC(D142_ DFO - D142_BAS) SERTAD1 (ProbeID ILMN_1794017): 2,25
- logFC(D142_ DFO - D142_BAS) CAMK2N1 (ProbeID ILMN_1794863): 2,65
- logFC(D142_ DFO - D142_BAS) PTP4A2 (ProbeID ILMN_1795697): 2,22
- logFC(D142_ DFO - D142_BAS) ASNS (ProbeID ILMN_1796417): 2,93
- logFC(D142_ DFO - D142_BAS) HMGCS1 (ProbeID ILMN_1797728): -2,09
- logFC(D142_ DFO - D142_BAS) PTPRF (ProbeID ILMN_1798081): 2,28
- logFC(D142_ DFO - D142_BAS) AK3L1 (ProbeID ILMN_1798249): 2,66
- logFC(D142_ DFO - D142_BAS) PLIN2 (ProbeID ILMN_1801077): 2,94
- logFC(D142_ DFO - D142_BAS) FAM162A (ProbeID ILMN_1803647): 2,50
- logFC(D142_ DFO - D142_BAS) CXCL12 (ProbeID ILMN_1803825): -2,19
- logFC(D142_ DFO - D142_BAS) VEGFA (ProbeID ILMN_1803882): 3,15
- logFC(D142_ DFO - D142_BAS) FMO3 (ProbeID ILMN_1808657): -2,46
- logFC(D142_ DFO - D142_BAS) PGF (ProbeID ILMN_1809813): 2,55
- logFC(D142_ DFO - D142_BAS) NDRG1 (ProbeID ILMN_1809931): 3,57
- logFC(D142_ DFO - D142_BAS) SFRP4 (ProbeID ILMN_1810172): -2,03
- logFC(D142_ DFO - D142_BAS) FAM129A (ProbeID ILMN_1810725): 2,88
- logFC(D142_ DFO - D142_BAS) PDE5A (ProbeID ILMN_1810836): -2,08
- logFC(D142_ DFO - D142_BAS) LOC402221 (ProbeID ILMN_1811909): -2,22
- logFC(D142_ DFO - D142_BAS) FAM20A (ProbeID ILMN_1812091): -2,11
- logFC(D142_ DFO - D142_BAS) SOX18 (ProbeID ILMN_1812968): -2,09
- logFC(D142_ DFO - D142_BAS) FKSG30 (ProbeID ILMN_1814998): -2,25
- logFC(D142_ DFO - D142_BAS) (ProbeID ILMN_1843198 (no gene name printed)): 3,25
- logFC(D142_ DFO - D142_BAS) (ProbeID ILMN_1890614 (no gene name printed)): 3,41
- logFC(D142_ DFO - D142_BAS) SNORD13 (ProbeID ILMN_1892403): 2,51
- logFC(D142_ DFO - D142_BAS) GADD45A (ProbeID ILMN_2052208): 2,60
- logFC(D142_ DFO - D142_BAS) LDLR (ProbeID ILMN_2053415): -2,03
- logFC(D142_ DFO - D142_BAS) PTGS2 (ProbeID ILMN_2054297): 2,25
- logFC(D142_ DFO - D142_BAS) GAS1 (ProbeID ILMN_2062701): -2,07
- logFC(D142_ DFO - D142_BAS) PMAIP1 (ProbeID ILMN_2098446): 2,11
- logFC(D142_ DFO - D142_BAS) GOLGA8B (ProbeID ILMN_2103547): 2,12
- logFC(D142_ DFO - D142_BAS) EEF1A2 (ProbeID ILMN_2108735): 2,72
- logFC(D142_ DFO - D142_BAS) CTHRC1 (ProbeID ILMN_2117508): -2,46
- logFC(D142_ DFO - D142_BAS) HBEGF (ProbeID ILMN_2121408): 2,13
- logFC(D142_ DFO - D142_BAS) IGFBP5 (ProbeID ILMN_2132982): 2,53
- logFC(D142_ DFO - D142_BAS) PLIN2 (ProbeID ILMN_2138765): 2,74
- logFC(D142_ DFO - D142_BAS) HIST2H2AA3 (ProbeID ILMN_2144426): 2,07
- logFC(D142_ DFO - D142_BAS) GBP1 (ProbeID ILMN_2148785): -2,41
- logFC(D142_ DFO - D142_BAS) SERPINB2 (ProbeID ILMN_2150851): 3,06
- logFC(D142_ DFO - D142_BAS) SERPINB2 (ProbeID ILMN_2150856): 3,04
- logFC(D142_ DFO - D142_BAS) ALDH1B1 (ProbeID ILMN_2150894): -2,55
- logFC(D142_ DFO - D142_BAS) LUM (ProbeID ILMN_2167805): -2,01
- logFC(D142_ DFO - D142_BAS) PFKFB3 (ProbeID ILMN_2186061): 4,03
- logFC(D142_ DFO - D142_BAS) RRAD (ProbeID ILMN_2186137): 3,12
- logFC(D142_ DFO - D142_BAS) GDF15 (ProbeID ILMN_2188862): 6,31
- logFC(D142_ DFO - D142_BAS) HSPB7 (ProbeID ILMN_2200836): -2,12
- logFC(D142_ DFO - D142_BAS) TP53INP1 (ProbeID ILMN_2214197): 2,62
- logFC(D142_ DFO - D142_BAS) PGK1 (ProbeID ILMN_2216852): 2,75
- logFC(D142_ DFO - D142_BAS) KIFC1 (ProbeID ILMN_2222008): -2,05
- logFC(D142_ DFO - D142_BAS) BEX1 (ProbeID ILMN_2234697): -3,45
- logFC(D142_ DFO - D142_BAS) LEPR (ProbeID ILMN_2234956): -2,33
- logFC(D142_ DFO - D142_BAS) UBE2C (ProbeID ILMN_2301083): -2,01
- logFC(D142_ DFO - D142_BAS) VCAM1 (ProbeID ILMN_2307903): -3,16
- logFC(D142_ DFO - D142_BAS) MAFF (ProbeID ILMN_2322375): 2,07
- logFC(D142_ DFO - D142_BAS) PORCN (ProbeID ILMN_2337058): 2,69
- logFC(D142_ DFO - D142_BAS) AK3L1 (ProbeID ILMN_2338038): 2,28
- logFC(D142_ DFO - D142_BAS) FMO3 (ProbeID ILMN_2344283): -2,30
- logFC(D142_ DFO - D142_BAS) MKNK2 (ProbeID ILMN_2347068): 2,45
- logFC(D142_ DFO - D142_BAS) BIRC5 (ProbeID ILMN_2349459): -2,14
- logFC(D142_ DFO - D142_BAS) VLDLR (ProbeID ILMN_2361862): 3,17
- logFC(D142_ DFO - D142_BAS) ATF3 (ProbeID ILMN_2374865): 3,23
- logFC(D142_ DFO - D142_BAS) VEGFA (ProbeID ILMN_2375879): 3,40
- logFC(D142_ DFO - D142_BAS) KCNK2 (ProbeID ILMN_2376953): -2,07
- logFC(D142_ DFO - D142_BAS) ANGPTL4 (ProbeID ILMN_2386444): 2,64
- logFC(D142_ DFO - D142_BAS) IGFBP1 (ProbeID ILMN_2387385): 2,45
- logFC(D142_ DFO - D142_BAS) MTHFD2 (ProbeID ILMN_2405521): 2,84
- logFC(D142_ DFO - D142_BAS) PODXL (ProbeID ILMN_2413158): 2,92
- logFC(D142_ DFO - D142_BAS) LOC100133609 (ProbeID ILMN_3237270): 2,49
- logFC(D142_ DFO - D142_BAS) BEND5 (ProbeID ILMN_3237448): 2,61
- logFC(D142_ DFO - D142_BAS) HIST2H2AA4 (ProbeID ILMN_3242900): 2,11
- logFC(D142_ DFO - D142_BAS) LOC644350 (ProbeID ILMN_3248701): 2,60
- logFC(D142_ DFO - D142_BAS) LOC728934 (ProbeID ILMN_3248758): 2,47
- logFC(D142_ DFO - D142_BAS) LOC644237 (ProbeID ILMN_3283772): 2,17
- logFC(D142_ DFO - D142_BAS) LOC729779 (ProbeID ILMN_3305273): 3,12
